Literature values in patent publication US6022558A, “Transdermal preparations of oxicams” (priority 1997, dated 2000).

Assays:
[1] = oral administration
[2] = rats and rabbits
[3] = single or multiple doses in patients

CN1C(C(=O)Nc2ccccn2)=C(O)c2ccccc2S1(=O)=O [piroxicam, 4-hydroxyl-2-methyl-N-(2-pyridyl)-2H-1,2-benzo-thiazine-3-carboxamide-1,1-dioxide]
Second plasma maximum [1]: shows a second maximum plasma concentration due to hepatic and intestinal recycling | Oral absorption [2]: almost completely absorbed | Cmax and AUC dependence on dose [3]: proportional to the dose administered | Pharmacokinetic linearity [3]: possessed a linear pharmacokinetic property
